Test results reported in patent US9458505B2, “Diagnosis of cowden and cowden-like syndrome by detection of decreased killin expression” (The Cleveland Clinic Foundation, priority 2011, dated 2016).

Tests used:
KILLIN expression = experiment: Quantitative RT-PCR of KILLIN expression in KILLIN-methylated patient lymphoblastoid cell lines after demethylation and/or histone deacetylase inhibition treatment; assay type: cell-based, human; conditions: pooled result for decitabine and/or TSA; for patient cell lines in which KILLIN expression was restored: 7 of the 8 patient lymphoblastoid cell lines, decitabine 0.5 μM and/or TSA 200 nM; for KILLIN expression increase following exposure to decitabine and/or TSA: patient lymphoblastoid cell lines, decitabine 0.5 μM 96 hours and/or TSA 200 nM 48 hours, normalized to untreated counterpart set as 1, 95% confidence interval 1.4-18.1
Experimental: (§1) The quantitative reverse transcription PCRs were performed as previously described. Bennett et al., Cancer Res.; 67(10): 4657-4664 (2007). The study population included four controls and eight patients that were selected based on confirmed methylation status by bisulfite sequencing analysis and representation of the Cowden syndrome and Cowden-like syndrome condition.
(§2) The study population included eight patients that were selected based on confirmed methylation status by bisulfite sequencing analysis and representation of Cowden syndrome and Cowden-like syndrome condition. Demethylation treatment was performed with a cytosine analog, 5-aza-2′deoxycytidine (decitabine; Sigma), for 96 hours at 0.5 μM concentration with approximately 40% confluent suspension lymphoblastoid cells. Inhibition of histone deacetylation was performed with 200 nM concentration of Trichostatin A (TSA; Sigma) with approximately 40% confluent suspension lymphoblastoid cells for 48 hours, with or without 0.5 μM decitabine. The drug was changed daily, and the cells were collected for RNA isolation.

PTEN expression = experiment: Quantitative RT-PCR of PTEN expression in KILLIN-methylated patient lymphoblastoid cell lines after demethylation and/or histone deacetylase inhibition treatment; assay type: cell-based, human; conditions: seven of the eight patient lymphoblastoid cell lines; decitabine 0.5 μM and/or TSA 200 nM; pooled result for demethylation and/or inhibition of histone deacetylation
Experimental: as §1, §2

Row | SMILES | patient cell lines in which KILLIN expression was restored (KILLIN expression) | KILLIN expression increase following exposure to decitabine and/or TSA (KILLIN expression) | patient cell lines with significant decrease in PTEN expression (PTEN expression)
1 | Nc1ncn([C@H]2C[C@H](O)[C@@H](CO)O2)c(=O)n1 [decitabine, 5-aza-2′deoxycytidine] | 88% | 4.88 fold | 88%
2 | CC(/C=C/C(=O)NO)=C\[C@@H](C)C(=O)c1ccc(N(C)C)cc1 [TSA, Trichostatin A] | 88% | 4.88 fold | 88%
